# Like-named read-outs stand apart in the source and are kept apart here.
# Columns and labels:
# Bel-7402 = assay: Tumor cell proliferation (MTS), Bel-7402; format: cell-based; details: Homo sapiens; Bel-7402, 72 hours; read-out: Gl50 µM in Bel-7402
# Experimental: (§1) Tumor cells were trypsinized and plated into 96-well plates at 3,000 per well and incubated in complete medium with 10% FBS for 24 hours. Compounds to be tested and vehicle control were added, and the final concentration of compound is in the range of 100 nmol/L to 100 µmol/L. The compounds were incubated for 72 hours in complete medium. The MTS reagent (Promega) was added according to the instruction, incubated for 2 hours at 37°C in CO2 incubator. Then absorbance at 490nm is read using an ELISA plate reader.
# Class I HDAC = assay: HDAC subtype selectivity reporter gene assay (P21 reporter, HeLa cells); format: cell-based; details: Homo sapiens, read-out: Class I HDAC (P21 reporter assay) Fold Induction at 10µM
# Experimental: Different HDAC subtypes can bind with different transcriptional factors and involve in expression regulation of various genes. Suitable regulation elements for transcriptional factors are selected to construct reporter genes, which can be used to evaluate the selective inhibition of inhibors on HDAC subtypes. Briefly, HeLa cells were seeded in 96-well plates the day before transfection to give a confluence of 50-80% when transfection. Cells were transfected with one of reporter gene plasmid containing a p21-promoter sequence or response element upstream of a luciferase gene construct using FuGene6 transfection reagent according to the manufacturer's instruction (Roche). For normalizing the transfection efficiency, a GFP expression plasmid was cotransfected. After 24 hours compounds or the vehicle control (DMSO) were added. 24 hours later the cells were harvested and lysed, and the amount of the luciferase was evaluated using luciferase assay kits (Promega) according to the manufacturer's instructions.
# HCT-8 = assay: Tumor cell proliferation (MTS), HCT-8; format: cell-based; details: Homo sapiens; HCT-8, 72 hours; read-out: Gl50 µM in HCT-8
# Experimental: as §1
# A549 = assay: Tumor cell proliferation (MTS), A549; format: cell-based; details: Homo sapiens; A549, 72 hours; read-out: Gl50 µM in A549
# Experimental: as §1
# A-498 = assay: Tumor cell proliferation (MTS), A-498; format: cell-based; details: Homo sapiens, A498; A-498, 72 hours; read-out: Gl50 µM in A-498
# Experimental: as §1
# MCF-7 = assay: Tumor cell proliferation (MTS), MCF-7; format: cell-based; details: Homo sapiens, MCF7; MCF-7, 72 hours; read-out: Gl50 µM in MCF-7
# Experimental: as §1
# HUVEC cells = assay: VEGF dependent cell proliferation (MTS); format: cell-based; details: Homo sapiens, VEGF 165 (50ng/ml), 72 hours, serum-free medium, read-out: Gl50 nM (VEGF ligand-dependent cell proliferation)
# Experimental: HUVEC cells were plated into 96-well plates at 6,000 per well and after 24 hours incubated with serum-free medium for 2 hours. Compounds to be tested and VEGF 165 (50ng/ml) were added and incubated for 72 hours in serum-free medium. The effects on cell proliferation were determined by MTS method (Promega) according to the instruction. Incubation was performed for 2 hours at 37°C in CO2 incubator, and absorbance at 490nm was determined using an ELISA plate reader.
# total HDAC enzyme = assay: In vitro total HDAC enzyme activity (HDAC Fluorimetric Assay/Drug Discovery Kit, HeLa cell nuclear extract); format: biochemical
# Experimental: The in vitro total HDAC enzyme activity was determined by HDAC Fluorimetric Assay/Drug Discovery Kit (BIOMOL) according to manufacture's instruction. The principle of the experiment is as follows: under the action of histone deacetylase (in the experiment, HeLa cell nuclear extract, which was rich in a variety of subtypes of HDAC, was used), an acetyl group is removed from a special substrate Fluor de Lys, thus the free amino is exposed. Upon Developer is added, the substrate will produce fluorescence. For the fluorescence, excitation wavelength is 360nm, and emission wavelength is 460nm. More fully the substrate deacetylated, more higher the fluorescence induced. In the absence of inhibitors, the fluorescence value is taken as the control; when inhibitor is existed, fluorescence value induced will be reduced, while in the case no enzyme is existed (corresponding to the completely inhibition of enzyme activity) the fluorescence value is blank. Generally, after suppression the fluorescence values will be between the control and blank. When analysis is made, blank will be used as 0, and the control will be used as 1. Smaller value means higher inhibitory activity. 1. Add Assay buffer, diluted trichostatin A and test inhibitor to appropriate wells of the microtiter plate. Following table lists the amounts used for each regent of various assay types.
# 2. Add diluted HeLa nucleoprotein extract to all wells except those that are marked as "blank". 3. Allow diluted Fluor de Lys™ Substrate and the samples in the microtiter plate to equilibrate to 25°C. 4. Initiate HDAC reactions by adding diluted substrate (25 µl) to each well and mixing thoroughly. 5. Allow reactions to proceed for 30 minutes and then stop them by addition of Fluor de Lys™ Developer (50 µl). Incubate plate at room temperature (25°C) for 10-15 min. 6. Read fluorescence of samples on a microtiter-plate reading fluorimeter at a excitation wavelength of 369 nm and a emitted wavelength of 451 nm.
# human PDGFRβ = biological target: T1, human PDGFRβ (Homo sapiens, UniProt P09619); assay: PDGF dependent cell proliferation (MTS); format: cell-based
# T1 construct: expressed in transfected cells
# Experimental: NIH-3T3 mouse fibroblasts cell line engineered to stably express human PDGFRβ was constructed and used to evaluate PDGF dependent cell proliferation. PDGFRβ NIH-3T3 cells were plated into 96-well plates at 5,000 per well and incubated overnight with serum-free medium after 24 hours. Compounds to be tested and PDGF BB (50ng/ml) were added and incubated for 72 hours in serum-free medium. The effects on proliferation were determined by MTS method (Promega) according to the instruction. Incubation was performed for 2 hours at 37°C in CO2 incubator, and absorbance at 490nm was measured using an ELISA plate reader.
# [1] = PDGFRβ NIH-3T3 cells, PDGF BB (50ng/ml), 72 hours, serum-free medium; read-out: Gl50 nM (PDGF ligand-dependent cell proliferation)
# T1 sequence (P09619 33-1106): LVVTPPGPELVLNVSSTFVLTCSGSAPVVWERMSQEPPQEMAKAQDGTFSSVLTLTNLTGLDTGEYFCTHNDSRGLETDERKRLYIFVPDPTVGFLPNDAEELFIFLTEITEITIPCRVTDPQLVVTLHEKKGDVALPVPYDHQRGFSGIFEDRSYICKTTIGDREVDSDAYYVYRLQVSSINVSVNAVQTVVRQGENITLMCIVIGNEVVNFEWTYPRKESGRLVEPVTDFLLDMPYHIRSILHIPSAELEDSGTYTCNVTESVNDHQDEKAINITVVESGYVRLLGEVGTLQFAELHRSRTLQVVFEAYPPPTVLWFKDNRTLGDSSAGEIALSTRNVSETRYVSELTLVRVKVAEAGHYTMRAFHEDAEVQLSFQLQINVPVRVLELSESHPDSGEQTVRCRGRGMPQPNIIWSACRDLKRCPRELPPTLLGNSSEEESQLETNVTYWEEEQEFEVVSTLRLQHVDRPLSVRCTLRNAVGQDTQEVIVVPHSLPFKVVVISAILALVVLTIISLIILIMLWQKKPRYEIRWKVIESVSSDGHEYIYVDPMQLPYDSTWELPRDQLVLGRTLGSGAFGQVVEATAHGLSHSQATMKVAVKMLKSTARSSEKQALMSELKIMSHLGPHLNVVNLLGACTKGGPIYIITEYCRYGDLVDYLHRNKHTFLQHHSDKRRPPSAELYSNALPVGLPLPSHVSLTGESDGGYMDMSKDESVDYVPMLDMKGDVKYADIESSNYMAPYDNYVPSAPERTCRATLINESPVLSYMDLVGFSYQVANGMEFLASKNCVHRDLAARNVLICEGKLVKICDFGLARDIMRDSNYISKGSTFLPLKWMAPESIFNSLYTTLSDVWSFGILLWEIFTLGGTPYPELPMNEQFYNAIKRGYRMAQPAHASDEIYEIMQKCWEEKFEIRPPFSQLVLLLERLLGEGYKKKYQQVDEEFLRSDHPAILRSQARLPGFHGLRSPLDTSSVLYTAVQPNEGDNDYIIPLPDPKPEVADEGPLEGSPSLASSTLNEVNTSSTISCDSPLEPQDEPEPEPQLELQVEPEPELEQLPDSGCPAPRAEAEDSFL
SMILES,IC50 (Bel-7402),"fold induction at 10 µM (Class I HDAC; 10µM, HeLa cells, 24 hours)",IC50 (HCT-8),IC50 (A549),IC50 (A-498),IC50 (MCF-7),IC50 (HUVEC cells),% inhibition of total HDAC enzyme activity at 30µM (total HDAC enzyme),IC50 (human PDGFRβ; [1]),"fold induction at 10 µM (Class I HDAC; HeLa, 24 h)","IC50 (human PDGFRβ; read-out: Gl50 nM (PDGF ligand-dependent cell proliferation); PDGFRβ NIH-3T3 cells, PDGF BB (50ng/ml), 72 hours, serum-free medium)"
"Nc1cc(F)ccc1NC(=O)c1ccc(CNC(=O)/C=C/c2cccnc2)cc1 [CS055, Chidamide, reference compound]",18.9 µM,33,7.71 µM,11.2 µM,12.1 µM,3.87 µM,–,–,–,–,–
"COc1cc2ncnc(Oc3ccc4c(C(=O)Nc5ccccc5N)cccc4c3)c2cc1OC [Compound 16, N-(2-aminophenyl)-6-(6,7-dimethoxyquinazolin-4-yloxy)-1-naphthamide]",30 µM,1.3,12.3 µM,30 µM,30 µM,30 µM,3 nM,8.6%,48 nM,–,–
"COc1cc2ncnc(Oc3ccc4c(C(=O)Nc5ccc(F)cc5N)cccc4c3)c2cc1OC [Compound 17, N-(2-amino-4-fluorophenyl)-6-(6,7-dimethoxyquinazolin-4-yloxy)-1-naphthamide]",30 µM,1.1,3 µM,30 µM,30 µM,30 µM,3 nM,22.5%,40 nM,–,–
"COc1cc2ncnc(Oc3ccc4c(C(=O)Nc5ccc(C)cc5N)cccc4c3)c2cc1OC [Compound 18, N-(2-amino-4-methylphenyl)-6-(6,7-dimethoxyquinazolin-4-yloxy)-1-naphthamide]",–,1.1,–,–,–,–,7 nM,17.1%,15 nM,–,–
"COc1ccc(NC(=O)c2cccc3cc(Oc4ncnc5cc(OC)c(OC)cc45)ccc23)c(N)c1 [Compound 19, N-(2-amino-4-methoxyphenyl)-6-(6,7-dimethoxyquinazolin-4-yloxy)-1-naphthamide]",–,1.4,–,–,–,–,23 nM,21.9%,11 nM,–,–
"COc1cc2ncnc(Oc3ccc4c(C(=O)Nc5ccc(Cl)cc5N)cccc4c3)c2cc1OC [Compound 20, N-(2-amino-4-chlorophenyl)-6-(6,7-dimethoxyquinazolin-4-yloxy)-1-naphthamide]",–,1.5,–,–,–,–,6 nM,21.9%,23 nM,–,–
"COc1cc2ncnc(Oc3ccc4c(C(=O)Nc5ccc(Br)cc5N)cccc4c3)c2cc1OC [Compound 21, N-(2-amino-4-bromophenyl)-6-(6,7-dimethoxyquinazolin-4-yloxy)-1-naphthamide]",–,1.1,–,–,–,–,5 nM,18.6%,19 nM,–,–
"COc1cc2ncnc(Oc3ccc4c(C(=O)Nc5ccc(C(F)(F)F)cc5N)cccc4c3)c2cc1OC [Compound 22, N-(2-amino-4-trifluoromethylphenyl)-6-(6,7-dimethoxyquinazolin-4-yloxy)-1-naphthamide]",–,1.1,–,–,–,–,3 nM,17%,372 nM,–,–
"COc1cc2ncnc(Oc3ccc4c(C(=O)NCc5ccc(C(=O)Nc6ccccc6N)cc5)cccc4c3)c2cc1OC [Compound 23, N-(4-((2-aminophenyl)carbamoyl)benzyl)-6-(6,7-dimethoxyquinazolin-4-yloxy)-1-naphthamide]",30 µM,11.3,5.7 µM,30 µM,14.7 µM,4.3 µM,18 nM,49.4%,148 nM,–,–
COc1cc2ncnc(Oc3ccc4c(C(=O)NCc5ccc(C(=O)Nc6ccccc6N)cn5)cccc4c3)c2cc1OC [Compound 25],30 µM,–,4.9 µM,30 µM,14.7 µM,6.1 µM,13 nM,47.9%,–,12.1,69 nM
"Nc1ccccc1NC(=O)c1cccc2cc(Oc3ccnc4ccccc34)ccc12 [Compound 39, N-(2-aminophenyl)-6-(quinolin-4-yloxy)-1-naphthamide]",–,1.2,–,–,–,–,107 nM,15.9%,32 nM,–,–
"Cc1cccc2c(Oc3ccc4c(C(=O)Nc5ccccc5N)cccc4c3)ccnc12 [Compound 40, N-(2-aminophenyl)-6-(8-methylquinolin-4-yloxy)-1-naphthamide]",–,1.3,–,–,–,–,1000 nM,22.2%,–,–,–
"Nc1ccccc1NC(=O)c1cccc2cc(Oc3ccnc4cc(Cl)ccc34)ccc12 [Compound 41, N-(2-aminophenyl)-6-(7-chloroquinolin-4-yloxy)-1-naphthamide]",–,1.1,–,–,–,–,105 nM,19.3%,479 nM,–,–
"Nc1ccccc1NC(=O)c1cccc2cc(Oc3ccnc4c(C(F)(F)F)cccc34)ccc12 [Compound 42, N-(2-aminophenyl)-6-(8-trifluoromethylquinolin-4-yloxy)-1-naphthamide]",–,1.3,–,–,–,–,1000 nM,6.2%,48 nM,–,–
"Nc1ccccc1NC(=O)c1ccc(CNC(=O)c2cccc3cc(Oc4ccnc5cc(Cl)ccc45)ccc23)cc1 [Compound 43, N-(4-((2-aminophenyl)carbamoyl)benzyl)-6-(7-chloroquinolin-4-yloxy)-1-naphthamide]",–,6.1,–,–,–,–,288 nM,38.7%,–,–,–
Nc1ccccc1NC(=O)c1ccc(CNC(=O)c2cccc3cc(Oc4ccnc5c(C(F)(F)F)cccc45)ccc23)cc1 [Compound 44],–,3.2,–,–,–,–,1000 nM,35.1%,–,–,–
